Tests used:
[1] = Metabolism in human liver microsomes; type: in vitro ADME; conditions: pH 7.4, 1 μM compound, 1 mg/mL microsomes, NADPH, 37° C., read-out: Human liver microsome T1/2
Description: Liver microsomes from human, rat dog and monkey were thawed and diluted to a final concentration of 1 mg/mL in 100 mM potassium phosphate buffer (pH 7.4). Test compounds and controls were prepared at 100× final concentration of 1 μM in 1:1 acetonitrile:water (v/v) and aliquoted into microsomal mixture. The mixture was preincubated at 37° C. in a shaking water bath for 10 minutes. The incubations were performed in duplicate. Three controls were included in the incubations; warfarin, phenacetin, and verapamil. After the preincubation, the reaction was initiated with NADPH at a final concentration of 1 mM. At 0, 5, 15, 30, 45 and 60 minutes, 25 μL of sample was removed and quenched with 300 μL of acetonitrile containing internal standard (Telmisartan). The samples were vortexed for 5 minutes at 1200 rpm and then centrifuged at 4000 rpm for 10 min. A 100 μL aliquot of supernatant was diluted three-fold with water and injected on an Exion LC 4500 Triple Quad LC-MS/MS system. Results were reported as a percentage of parent remaining and was calculated from peak area ratios of test compound remaining after at each time point and compared to time zero incubation.

CYP2B6 = experiment: Cytochrome P450 (CYP2B6) induction in cryopreserved human hepatocytes; type: cell-based; conditions: hepatocytes from three individual donors, 0.12 to 30 μM, 48 hours
Description: Following the guidance of the FDA (“In Vitro Metabolism- and Transporter-Mediated Drug-Drug Interaction Studies Guidance for Industry”), the potential of Example 1 and Example 60.2 to induce CYP2B6 expression was tested using hepatocytes from the same three individual donors (rather than pooled donors), and changes in enzyme mRNA levels were evaluated using the “fold-change method”. In this test a fold-change in mRNA levels less than 2-fold is considered a negative finding, while a change ≥2-fold is considered a positive finding.
Compounds were tested in a CYP induction assay using inducible cryopreserved human primary hepatocytes from three donors to determine the potential to cause induction (as measured by an increase in mRNA transcription) of CYP2B6. […] At the end of the incubation, the integrity of cell monolayers, cell density and viability were evaluated to assess cytotoxicity effects. […] It was then used in reverse transcription polymerase chain reactions (RT-PCR) to quantify the amount of specific mRNA species encoding human CYP3A4, CYP2B6, and CYP1A2 genes.
The induction potential of test compounds and controls was compared to known CYP2B6 inducer Phenobarbital (1000 μM). The results of this assay are expressed as fold induction. […] The cytotoxicity was also assessed in parallel to avoid false positive CYP induction results due to cytotoxicity. […]

[2] = Pharmacokinetic parameters in vivo, rat; set-up: species or system Wistar Han Rats; conditions: Wistar Han, plasma
Description: PK was investigated in male CD1 mice, Wistar Han Rats, Cynomolgus monkeys, and Beagle Dogs. Two groups of animals (N=3 per group) received test compound either as an intravenous (IV) dose (1 mg/kg) or by oral gavage (5 mg/kg solution and suspension). Drug was formulated in 90% PEG 400, 10% ethanol for IV administration and in 90% PEG400, 5% ethanol for PO administration. Blood samples were collected at 0.167, 0.25, 0.5, 0.75, 1, 2, 3, 5, 7, 24, 48, 72 and 96 h post dose for IV; 0.25, 0.5, 0.75, 1, 2, 3, 5, 7, 24, 48, 72 and 96 h post dose for oral. Blood samples were collected into K3EDTA tubes and centrifuged at 1500 to 2000×g to obtain plasma. Plasma samples were stored at −20° C. until analysis by LC-MS/MS. All […] samples were injected on an Exion LC 4500 Triple Quad™ LC-MS/MS system. The analytical column used was a Phenomenex C18 (C18, 4.6 mm×50 mm, 5 μm) maintained at room temperature. Mobile Phase A consisted of 0.1% (v/v) formic acid in MilliQ water. Mobile Phase B consisted of 100% methanol. The flow rate was 1 mL/min. […] All LC-MS/MS analysis parameters are captured electronically in the raw data files. The PK parameters were obtained by non-compartmental analysis of plasma concentration vs time data (Phoenix WinNonlin v8). The peak concentration (Cmax) and time for Cmax (Tmax) were recorded directly from experimental observations. The area under the curve from time zero to the last sampling time [AUC0-T] and the area under the curve from time zero to infinity [AUCINF] were calculated using a combination of linear and log trapezoidal summations. The total plasma clearance (CLTp), steady-state volume of distribution (Vss), apparent elimination half-life (T-HALF), and mean residence time (MRT) were estimated after IV administration. Estimations of AUC and T-HALF were made using a minimum of three timepoints with quantifiable concentrations. The absolute oral bioavailability (F) was estimated as the ratio of dose-normalized AUC values following oral and IV doses.

[3] = Subcutaneous in vivo PK experiment in rat; set-up: species or system Wistar Han Rats; conditions: subcutaneous injection 20 mg/kg
Description: Drug was formulated in 1% Kolliphor P188/1% PEG3350/3.5% Mannitol/94.5% Water and then administered to Wistar Han Rats as a subcutaneous injection at a dose of 20 mg/kg. Blood samples were collected at 0.167, 0.25, 0.5, 0.75, 1, 2, 3, 5, 7, 24, 48, 72, 96 h, and then every 3 days for up to 122 days. Blood samples were collected into K3EDTA tubes and centrifuged at 1500 to 2000×g to obtain plasma. Plasma samples were stored at −20° C. until analysis by LC-MS/MS.

In the case of Cn1nc(NS(C)(=O)=O)c2c(Cl)ccc(-n3c([C@H](Cc4cc(F)cc(F)c4)NC(=O)Cn4nc(C(F)F)c5c4C(F)(F)[C@@H]4C[C@H]54)nc4nc(OCCC(C)(F)F)ccc4c3=O)c21 (atropisomer, axis not shown; (P)) [Example 1, N—((S)-1-((3P)-3-(4-chloro-1-methyl-3-(methylsulfonamido)-1H-indazol-7-yl)-7-(3,3-difluorobutoxy)-4-oxo-3,4-dihydropyrido[2,3-d]pyrimidin-2-yl)-2-(3,5-difluorophenyl)ethyl)-2-((3bS,4aR)-3-(difluoromethyl)-5,5-difluoro-3b,4,4a,5-tetrahydro-1H-cyclopropa[3,4]cyclopenta[1,2-c]pyrazol-1-yl)acetamide], the half-life at 1 μM [1] is reported as over 2 h, the “CYP2B6 induction finding (mRNA fold-change method)” value (CYP2B6) is reported as “negative finding (a fold-change in mRNA levels less than 2-fold is considered a negative finding)” and the clearance ([2]; IV 1 mg/kg) is reported as 0.216 L/h/kg. For the same molecule, the half-life ([2]; IV 1 mg/kg) was 10.2 h, the Vd ([2]; IV 1 mg/kg, read-out: Vss) was 1.76 L/kg and the bioavailability ([2]; oral gavage 5 mg/kg solution vs IV 1 mg/kg) was 57.5%. The half-life ([3]; Wistar Han, plasma, sc, read-out: apparent half-life of compound in plasma (converted)) was 1200 h and the “time drug concentrations were maintained above 5 ng/mL” value [3] was 87 days.

— patent US20220105096A1, “INHIBITORS OF HUMAN IMMUNODEFICIENCY VIRUS REPLICATION” (ViiV HEALTHCARE UK (NO.5) LIMITED, priority 2019, published 2022)
